# From patent US20100092539A1, “Fluorinated GHRH Antagonists” (priority 2008, published 2010)
# Tested on: PC-3 human hormone-independent prostate cancer
# Assay: Effect of treatment with GH-RH antagonists on PC-3 human prostate cancer xenografts in nude mice
# Format: in vivo
# Conditions: PC-3 xenografts s.c. in male nude mice, 2 ug/day s.c., single daily injections for 28
# Method: Male nude mice were implanted s.c. with 3 mm3 pieces of PC-3 human hormone-independent prostate cancer tissue on both flanks. When tumors reached a volume of approximately 50 mm3, the mice were divided into 14 experimental groups with 8 to 10 animals in each group and received single daily injections for 28 as follows: 1. Control (vehicle solution); 2. P-12211 (2 μg/day s.c.); 3. P-12307 (2 μg/day s.c.); 4. P-12317 (2 μg/day s.c.); 5. P-12408 (2 μg/day s.c.); 6. P-12409 (2 μg/day s.c.); 7. P-12457 (2 μg/day s.c.); 8. P-12473 (2 μg/day s.c.); 9. P-12479 (2 μg/day s.c.); 10. P-12600 (2 μg/day s.c.); 11. P-12601 (2 μg/day s.c.); 12. P-12602 (2 μg/day s.c.); 13. P-12603 (2 μg/day s.c.); and 14. P-12610 (2 μg/day s.c.).
# Effect of Treatment with GH-RH Antagonists on PC-3 Human Prostate Cancer Xenografts in Nude Mice
substance,measurement,setting,value
"[PhAc^0-Tyr^1, D-Arg^2, Cpa^6, Ala^8, Har^9, Fpa5^10, His^11, Orn^12, Abu^15, His^20, Orn^21, Nle^27, D-Arg^28, Har^29, Ada^30]hGH-RH(1-30)NH2 [Peptide P-12610]",Tumor Growth after 4 weeks (%),control 2137.62,474.98%
same,Tumor growth inhibition after 4 weeks (%),versus control,77.78%
